In patent US12527886B2, “Radiopharmaceuticals and composition for thrombus imaging” (THE ASAN FOUNDATION, priority 2020, dated 2026):

Experiments:
[1] = Stability of Tc-99m labeled compound by radioTLC; type: physicochemical; conditions: for Eluent A / Eluent B: in % (unit assumed)
Description: (§1) After 2.0 mg of GP-104 was dissolved in 1.8 mL of water for injection and 0.2 mL of ethanol, the resulting solution was allowed to stand with a pH of about 5 at room temperature for 10 minutes when 20 μL of SnCl2 (15 mg/mL) and 2 mL of Tc-99m were added thereto, and the reaction was terminated by adjusting the pH to 7 using a NaOH solution. Stability up to 4 hours was confirmed by radioTLC under conditions of pH 5 and pH 7, respectively, and the results are summarized in the following Table 1. (TLC analysis conditions: iTLC was used, Eluent A: methyl ethyl ketone 100%, Eluent B: pyridine:acetic acid:purified water=3:5:15, and purity calculation: Eluent A−Eluent B)
as §1, with “ethanol, pH was adjusted to about 5 and” for “ethanol,”, “stand” for “stand with a pH of about 5”, “(15 mg/mL), 20 μL of cysteine (10” for “(15”, “Table 2.” for “Table 1.”
(§2) After 2.0 mg of GP-105 was dissolved in 1.8 mL of water for injection and 0.2 mL of ethanol, the pH was adjusted to about 5 and the resulting solution was allowed to stand at room temperature for 10 minutes when 20 μL of SnCl2 (15 mg/mL) and 2 mL of Tc-99m were added thereto, and the reaction was terminated by adjusting the pH to 7 using a NaOH solution. Stability until 4 hours under conditions of pH 5 and pH 7 was each confirmed by radioTLC. (TLC analysis conditions: iTLC was used, Eluent A: methyl ethyl ketone 100%, Eluent B: pyridine:acetic acid:purified water=3:5:15, and purity calculation: Eluent A−Eluent B)
as §2, with “ethanol,” for “ethanol, the”, “(15 mg/mL), 20 μL of cysteine (10” for “(15”

glycoprotein IIb/IIIa = molecular target: T1, glycoprotein IIb/IIIa (Rattus norvegicus, UniProt A0A8I6GGN2+Q8R2H2); assay: Glycoprotein IIb/IIIa specific uptake in thrombotic disease model, gamma counter / microSPECT; type: in vivo, rats
T1 construct: a disease model in which a thrombus was formed with glycoprotein IIb/IIIa overexpressed; from tissue; host or cells: in vivo rat carotid artery thrombus (ferric chloride model)
T1 sequence (A0A8I6GGN2 32-1037): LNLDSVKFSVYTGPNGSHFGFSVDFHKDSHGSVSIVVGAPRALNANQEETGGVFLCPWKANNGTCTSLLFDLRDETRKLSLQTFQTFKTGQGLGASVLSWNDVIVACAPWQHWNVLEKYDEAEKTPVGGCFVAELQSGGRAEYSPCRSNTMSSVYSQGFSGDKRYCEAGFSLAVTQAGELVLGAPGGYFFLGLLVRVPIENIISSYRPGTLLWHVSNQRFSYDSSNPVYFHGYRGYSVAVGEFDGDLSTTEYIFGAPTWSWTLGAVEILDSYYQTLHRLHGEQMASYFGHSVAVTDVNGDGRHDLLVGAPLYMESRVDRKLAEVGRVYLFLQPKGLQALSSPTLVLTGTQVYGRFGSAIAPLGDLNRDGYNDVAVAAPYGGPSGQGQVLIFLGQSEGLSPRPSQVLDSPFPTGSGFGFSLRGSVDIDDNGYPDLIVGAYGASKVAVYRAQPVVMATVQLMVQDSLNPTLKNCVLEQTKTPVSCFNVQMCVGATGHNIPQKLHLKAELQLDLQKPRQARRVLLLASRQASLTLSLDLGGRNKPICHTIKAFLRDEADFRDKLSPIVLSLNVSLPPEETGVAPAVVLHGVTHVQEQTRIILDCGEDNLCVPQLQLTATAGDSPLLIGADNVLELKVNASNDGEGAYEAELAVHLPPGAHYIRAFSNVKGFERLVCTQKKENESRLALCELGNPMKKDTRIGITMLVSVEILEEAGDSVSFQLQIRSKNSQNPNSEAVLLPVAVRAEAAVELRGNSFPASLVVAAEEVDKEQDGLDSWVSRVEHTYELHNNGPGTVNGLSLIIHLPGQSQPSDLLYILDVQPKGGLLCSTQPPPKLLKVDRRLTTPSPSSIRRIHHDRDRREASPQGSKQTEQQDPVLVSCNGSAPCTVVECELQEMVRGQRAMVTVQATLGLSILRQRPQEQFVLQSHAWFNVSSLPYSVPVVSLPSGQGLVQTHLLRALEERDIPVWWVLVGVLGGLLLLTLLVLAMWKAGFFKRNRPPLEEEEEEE
T1 sequence (Q8R2H2 26-787): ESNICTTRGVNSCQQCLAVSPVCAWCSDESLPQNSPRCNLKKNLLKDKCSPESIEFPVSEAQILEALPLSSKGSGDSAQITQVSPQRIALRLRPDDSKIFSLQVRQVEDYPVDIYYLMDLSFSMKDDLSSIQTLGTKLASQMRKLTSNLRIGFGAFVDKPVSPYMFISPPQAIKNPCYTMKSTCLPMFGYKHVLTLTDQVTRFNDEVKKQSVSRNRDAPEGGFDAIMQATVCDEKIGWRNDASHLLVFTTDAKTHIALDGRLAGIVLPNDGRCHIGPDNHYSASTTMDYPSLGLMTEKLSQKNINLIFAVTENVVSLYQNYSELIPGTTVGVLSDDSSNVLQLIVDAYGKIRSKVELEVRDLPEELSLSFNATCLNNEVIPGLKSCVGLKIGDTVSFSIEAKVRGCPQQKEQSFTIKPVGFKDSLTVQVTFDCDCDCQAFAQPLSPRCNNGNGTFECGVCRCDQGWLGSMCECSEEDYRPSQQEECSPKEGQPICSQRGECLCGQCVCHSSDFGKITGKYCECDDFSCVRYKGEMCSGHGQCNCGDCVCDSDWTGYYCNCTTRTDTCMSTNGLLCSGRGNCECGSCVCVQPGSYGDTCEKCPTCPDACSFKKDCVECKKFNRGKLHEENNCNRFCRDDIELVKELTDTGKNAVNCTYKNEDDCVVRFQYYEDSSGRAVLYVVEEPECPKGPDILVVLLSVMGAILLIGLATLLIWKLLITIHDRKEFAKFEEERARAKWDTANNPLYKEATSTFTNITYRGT
Text: After 6-week-old rats were anesthetized to make a thrombotic disease model, the carotid artery was secured by opening the skin on the carotid artery side. Then, a filter paper soaked with a 5% ferric chloride solution was exposed on the artery, and then washed three times or more with physiological saline, and the incised skin was sutured again to make a model. […]

[2] = Ex 3-1, no cysteine, pH 5, 0 hour
[3] = Ex 3-1, no cysteine, pH 5, 0.5 hours
[4] = Ex 3-1, no cysteine, pH 5, 1.0 hour
[5] = Ex 3-1, no cysteine, pH 5, 1.5 hours
[6] = Ex 3-1, no cysteine, pH 5, 2.0 hours
[7] = Ex 3-1, no cysteine, pH 5, 3.0 hours
[8] = Ex 3-1, no cysteine, pH 5, 4.0 hours
[9] = Ex 3-1, no cysteine, pH 7, 0 hour
[10] = Ex 3-1, no cysteine, pH 7, 0.5 hours
[11] = Ex 3-1, no cysteine, pH 7, 1.0 hour
[12] = Ex 3-1, no cysteine, pH 7, 1.5 hours
[13] = Ex 3-1, no cysteine, pH 7, 2.0 hours
[14] = Ex 3-1, no cysteine, pH 7, 3.0 hours
[15] = Ex 3-1, no cysteine, pH 7, 4.0 hours
[16] = Ex 3-2, cysteine, pH 5, 0.5 hours
[17] = Ex 3-2, cysteine, pH 5, 1.0 hour
[18] = Ex 3-2, cysteine, pH 5, 1.5 hours
[19] = Ex 3-2, cysteine, pH 5, 2.0 hours
[20] = Ex 3-2, cysteine, pH 5, 3.0 hours
[21] = Ex 3-2, cysteine, pH 5, 4.0 hours
[22] = Ex 3-2, cysteine, pH 7, 0.5 hours
[23] = Ex 3-2, cysteine, pH 7, 1.0 hour
[24] = Ex 3-2, cysteine, pH 7, 1.5 hours
[25] = Ex 3-2, cysteine, pH 7, 2.0 hours
[26] = Ex 3-2, cysteine, pH 7, 3.0 hours
[27] = Ex 3-2, cysteine, pH 7, 4.0 hours
[28] = gamma counter, sacrificed at the 2nd hour

SMILES: O=C(O)C[C@H](NC(=O)[C@@H]1CCCN(C(=O)CCC2CCNCC2)C1)c1cncc(OCCNC(=O)CN2CCN3CCN(CC(=O)O)CC(=O)[O][99Tc+]([O]C(=O)C3)[O]C(=O)C2)c1 [[Tc-99m]GP-104]
- Purity [1, 2]: 90.28%
- Eluent A [1, 2]: 95.7
- Eluent B [1, 2]: 5.42
- Purity [1, 3]: 91.36%
- Eluent A [1, 3]: 95.42
- Eluent B [1, 3]: 4.06
- Purity [1, 4]: 82.28%
- Eluent A [1, 4]: 98.43
- Eluent B [1, 4]: 16.15
- Purity [1, 5]: 72.79%
- Eluent A [1, 5]: 85.7
- Eluent B [1, 5]: 12.91
- Purity [1, 6]: 70.11%
- Eluent A [1, 6]: 91.79
- Eluent B [1, 6]: 21.68
- Purity [1, 7]: 67.71%
- Eluent A [1, 7]: 91.64
- Eluent B [1, 7]: 23.93
- Purity [1, 8]: 55.93%
- Eluent A [1, 8]: 80.48
- Eluent B [1, 8]: 24.55
- Purity [1, 9]: 90.59%
- Eluent A [1, 9]: 98.26
- Eluent B [1, 9]: 7.67
- Purity [1, 10]: 78.04%
- Eluent A [1, 10]: 92.82
- Eluent B [1, 10]: 14.78
- Purity [1, 11]: 78.31%
- Eluent A [1, 11]: 94.51
- Eluent B [1, 11]: 16.2
- Purity [1, 12]: 82.7%
- Eluent A [1, 12]: 96.11
- Eluent B [1, 12]: 13.41
- Purity [1, 13]: 76.61%
- Eluent A [1, 13]: 96.22
- Eluent B [1, 13]: 19.61
- Purity [1, 14]: 77.93%
- Eluent A [1, 14]: 87.58
- Eluent B [1, 14]: 9.65
- Purity [1, 15]: 54.14%
- Eluent A [1, 15]: 73.22
- Eluent B [1, 15]: 19.08
- Purity ([1]; Ex 3-2, cysteine, pH 5, 0 hour): 85.97%
- Eluent A ([1]; Ex 3-2, cysteine, pH 5, 0 hour): 89.51
- Eluent B ([1]; Ex 3-2, cysteine, pH 5, 0 hour): 3.54
- Purity [1, 16]: 87.89%
- Eluent A [1, 16]: 93.51
- Eluent B [1, 16]: 5.62
- Purity [1, 17]: 90.39%
- Eluent A [1, 17]: 93.61
- Eluent B [1, 17]: 3.22
- Purity [1, 18]: 93.47%
- Eluent A [1, 18]: 95.55
- Eluent B [1, 18]: 2.08
- Purity [1, 19]: 82.97%
- Eluent A [1, 19]: 91.17
- Eluent B [1, 19]: 8.2
- Purity [1, 20]: 86.06%
- Eluent A [1, 20]: 89.61
- Eluent B [1, 20]: 3.55
- Purity [1, 21]: 87.56%
- Eluent A [1, 21]: 91.99
- Eluent B [1, 21]: 4.43
- Purity ([1]; Ex 3-2, cysteine, pH 7, 0 hour): 96.94%
- Eluent A ([1]; Ex 3-2, cysteine, pH 7, 0 hour): 100
- Eluent B ([1]; Ex 3-2, cysteine, pH 7, 0 hour): 3.06
- Purity [1, 22]: 93.36%
- Eluent A [1, 22]: 98.3
- Eluent B [1, 22]: 4.94
- Purity [1, 23]: 96.35%
- Eluent A [1, 23]: 98.27
- Eluent B [1, 23]: 1.92
- Purity [1, 24]: 97.69%
- Eluent A [1, 24]: 100
- Eluent B [1, 24]: 2.31
- Purity [1, 25]: 97.12%
- Eluent A [1, 25]: 100
- Eluent B [1, 25]: 2.88
- Purity [1, 26]: 94.14%
- Eluent A [1, 26]: 100
- Eluent B [1, 26]: 5.86
- Purity [1, 27]: 95.76%
- Eluent A [1, 27]: 100
- Eluent B [1, 27]: 4.24
- Purity ([1]; addition of cysteine, pH of 7, even after 4 hours (text to Table 2)): ≥ 90%
- specific uptake in the disease model (glycoprotein IIb/IIIa): high specific uptake
- target to non target ratio (glycoprotein IIb/IIIa; gamma counter, 2nd hour): 2.0
- counts per minute (CPM)/g value, left artery (glycoprotein IIb/IIIa; [28]): 1.3 CPM/g
- counts per minute (CPM)/g value, right artery (glycoprotein IIb/IIIa; [28]): 2.5 CPM/g
- background radioactivity excretion (glycoprotein IIb/IIIa; microSPECT until 4 hours): quick background radioactivity excretion effect
